pIC50: −log10 of the molar value.
biological target: T1, Lipoprotein-Related Phospholipase A2 (Lp-PLA2) in Human Plasma (Homo sapiens, UniProt Q13093); assay: Determination of Lp-PLA2 in human plasma (Thio-PAF assay); type: biochemical; details: mixed human plasma, 2-thio-PAF substrate, 30 minutes pre-incubation at room temperature
T1 construct: 40 μL of equally-divided and thawed mixed human plasma is pre-added; from tissue; host or cells: mixed (pooled) human plasma
T1 sequence (Q13093 22-441): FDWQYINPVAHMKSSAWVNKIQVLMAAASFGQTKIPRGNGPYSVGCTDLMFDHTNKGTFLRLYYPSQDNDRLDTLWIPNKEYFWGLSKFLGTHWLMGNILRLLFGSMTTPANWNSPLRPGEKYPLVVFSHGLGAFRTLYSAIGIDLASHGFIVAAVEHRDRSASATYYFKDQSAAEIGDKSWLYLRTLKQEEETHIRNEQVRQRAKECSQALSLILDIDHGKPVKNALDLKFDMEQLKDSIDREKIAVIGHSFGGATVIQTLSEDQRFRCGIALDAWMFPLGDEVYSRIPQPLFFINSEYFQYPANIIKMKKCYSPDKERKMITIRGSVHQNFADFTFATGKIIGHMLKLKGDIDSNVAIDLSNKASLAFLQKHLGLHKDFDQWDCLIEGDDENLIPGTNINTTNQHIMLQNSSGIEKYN
Excerpt: Determination of Lipoprotein-Related Phospholipase A2 (Lp-PLA2) in Human Plasma.
Human plasma determination utilizes a thioester analogue of phosphatidylcholine (PAF), where hydrolysis leads to the formation of phospholipids containing free thiol groups. The amount of the thiol groups is continuously determined by reacting with CPM (7-diethylamino-3-(4′-maleimidophenyl)-4-methylcoumarin), which is maleimide with increased fluorescence after Michael addition of the thiol groups. This determination can detect the activity of Lp-PLA2 in human plasma, for example, determined by the specific inhibition of the Lp-PLA2 inhibitors.
Thio-PAF determination, as quenched 75 μL determination, is carried out. A compound source plate is prepared by preparing a 1:3 (volume) series of diluents of each compound in pure DMSO on a 96-well microplate. A Rainin multi-channel pipette is used to transfer 3 μL of a compound on the compound source plate into a 96-well microplate where 57 μL of a determination buffer is pre-added, and the compound on the source plate is diluted by 20 folds. The above determination buffer contains 50 mM HEPES (pH 7.4), 150 mM NaCl, and 1 mM CHAPS. A Rainin multi-channel pipette is used to transfer 1 μL of the compound subjected to 20-fold dilution into a 96-well Greiner 655076 (black) microplate where 40 μL of equally-divided and thawed mixed human plasma is pre-added. The plate is oscillated for 20 seconds in an Elisa plate oscillator to be mixed evenly. After 30 minutes of pre-incubation at the room temperature, a Rainin multi-channel pipette is used to add 10 μL of a substrate solution to a 96-well Greiner 655076 (black) microplate, and the substrate solution contains 2.5 mM 2-thio-PAF [from ethanol mother liquor], 32 μM CPM [from DMSO mother liquor] and 3.2 mM NEM (N-ethylmaleimide) [newly prepared in DMSO for each experiment] in a determination buffer composed of 50 mM HEPES (pH 7.4), 150 mM NaCl, and 1 mM CHAPS. After 2 minutes, 25 μL of a 5% trifluoroacetic acid (TFA) aqueous solution is used for quenching the reaction. The plate is centrifuged at 2000 rpm for 1 minute. A Biotek Synergy H1 (H1MF) Elisa reader is used to read the plate at ex:380/em:485. GraphPad Prism 6.0 and Excel are used for IC50 data, curve, and QC analysis.

pIC50 | Compound
8.20 | O=c1nc(OCc2cc(F)c(Oc3cnc(C(F)(F)F)nc3)c(F)c2)cc2n1CC[C@]13CO[C@H](CN21)C3 [Example 9]
8.30 | O=c1nc(OCc2cc(F)c(Oc3ccnc(Cl)c3)c(F)c2)cc2n1CC[C@]13CO[C@H](CN21)C3 [Example 6]
8.31 | O=c1nc(OCc2cc(F)c(Oc3ccnc(C(F)(F)F)c3)c(F)c2)cc2n1CC[C@@]13CO[C@@H](CN21)C3 [Example 23]
8.47 | O=c1nc(OCc2ccc(Oc3ccnc(C(F)(F)F)c3)c(F)c2)c(Cl)c2n1CC[C@]13CO[C@H](CN21)C3 [Example 58, (7aS,10S)-1-chloro-2-((3-fluoro-4-((2-(trifluoromethyl)pyrid-4-yl)oxy)benzyl)oxy)-6,7,10, 11-tetrahydro-4H, 8H-7a,10-methyl-pyrimidinyl[6′,1′: 2,3]pyrimidinyl [6,1-c][1,4]oxazin-4-one]
8.35 | N#Cc1cc(COc2cc3n(c(=O)n2)CC[C@]24CO[C@H](CN32)C4)ccc1Oc1cccc(C(F)(F)F)c1 [Example 5]
8.18 | O=c1nc(OCc2cc(F)c(Oc3ccnc(OC(F)(F)F)c3)c(F)c2)cc2n1CC[C@@]13CO[C@@H](CN21)C3 [Example 26]
8.09 | O=c1nc(OCc2ccc(Oc3ccnc(C(F)F)c3)c(F)c2)cc2n1CC[C@]13CO[C@H](CN21)C3 [Example 8]
7.83 | N#Cc1cc(COc2cc3n(c(=O)n2)CCC2CCCCN32)ccc1Oc1cccc(C(F)(F)F)c1 (stereo not drawn) [Example 44]
7.97 | CCC12CCCN1c1cc(OCc3ccc(Oc4cccc(C(F)(F)F)c4)c(C#N)c3)nc(=O)n1CC2 (stereo not drawn) [Example 40]
7.95 | Cc1cc(Oc2c(F)cc(COc3cc4n(c(=O)n3)CC[C@]35CO[C@H](CN43)C5)cc2F)ccn1 [Example 4]

The next lines start with the molecule.

Compound | pIC50
COc1c(OCc2cc(F)c(Oc3ccnc(OC(F)(F)F)c3)c(F)c2)nc(=O)n2c1N1C[C@@H]3C[C@@]1(CC2)CO3 [Example 63] | 8.26
CC12CCCN1c1cc(OCc3ccc(F)c(C#N)c3)nc(=O)n1CC2 (stereo not drawn) [Example 37] | 7.47
O=c1nc(OCc2cc(F)c(Oc3ccnc(OC(F)(F)F)c3)c(F)c2)cc2n1CCC13CC(CN21)C3 [Example 18] | 7.96
N#Cc1cc(COc2cc3n(c(=O)n2)CCC24CC(CN32)C4)ccc1F [Example 21] | 7.62
COc1c(OCc2ccc(Oc3ccnc(C(F)(F)F)c3)c(F)c2)nc(=O)n2c1N1C[C@@H]3C[C@@]1(CC2)CO3 [Example 62, (7aS,10S)-2-((3-fluoro-4-((2-(trifluoromethyl)pyrid-4-yl)oxy)benzyl)oxy)-1-methoxy-6,7,10, 11-tetrahydro-4H, 8H-7a,10-methyl-pyrimidinyl [6′,1′:2,3] pyrimidinyl[6,1-c] [1,4]oxazin-4-one] | 8.28
O=c1nc(OCc2cc(F)c(Oc3cnc(C(F)(F)F)nc3)c(F)c2)cc2n1CCC1COCCN21 (stereo not drawn) [Example 55] | 7.86
O=c1nc(OCc2cc(F)c(Oc3ccc(Cl)c(C(F)(F)F)c3)c(F)c2)cc2n1CCC13CC(CN21)C3 [Example 14, 2-((4-(4-chloro-3-(trifluoromethyl)phenoxy)-3,5-di-fluorobenzyl)oxy)-6,7,9,10-tetrahydro-4H,8H-7a,9-methanopyrimido [1,6-a]pyrrolo[1,2-c] pyrimidine-4-one] | 8.06
CCC12CCCN1c1cc(OCc3cc(F)c(Oc4ccc(Cl)c(C(F)(F)F)c4)c(F)c3)nc(=O)n1CC2 (stereo not drawn) [Example 39, 2-((4-(4-chloro-3-(trifluoromethyl)phenoxy)-3,5-difluorobenzyl)oxy)-7a-ethyl-6,7,7a,8,9, 10-hexahydro-4H-pyrimidinyl[1,6-a] pyrrolo[1,2-c] pyrimidine-4-one] | 7.48
O=c1nc(OCc2cc(F)c(Oc3cnc(C(F)(F)F)nc3)c(F)c2)cc2n1CCC13CC(CN21)C3 [Example 20, 2-((3,5-difluoro-4-((2-(trifluoromethyl)pyrimidin-5-yl)oxy)benzyl)oxy)-6,7,9,10-tetrahydro-4H,8H-7a,9-methano-pyrimido[1,6-a] pyrrolo[1,2-c] pyrimidine-4-one] | 7.43
CCc1c(OCc2ccc(Oc3ccnc(C(F)(F)F)c3)c(F)c2)nc(=O)n2c1N1C[C@@H]3C[C@@]1(CC2)CO3 [Example 60, (7aS,10S)-1-ethyl-2-((3-fluoro-4-((2-(trifluoromethyl)pyrid-4-yl)oxy)benzyl)oxy)-6,7,10, 11-tetrahydro-4H, 8H-7a,10-methyl-pyrimidinyl [6′,1′:2,3] pyrimidinyl[6,1-c] [1,4]oxazin-4-one] | 7.91
O=c1nc(OCc2cc(F)c(Oc3ccnc(C(F)(F)F)c3)c(F)c2)cc2n1CCC13CC(CN21)C3 [Example 12, 2-((3,5-difluoro-4-((2-(trifluoromethyl)pyrid-4-yl)oxy)benzyl)oxy)-6,7,9,10-tetrahydro-4H, 8H-7a,9-methano-pyrimido[1,6-a] pyrrolo[1,2-c]pyri-midine-4-one] | 8.08
CC12CCCCN1c1cc(OCc3ccc(Oc4ccnc(C(F)(F)F)c4)c(F)c3)nc(=O)n1CC2 (stereo not drawn) [Example 49, 2-((3-fluoro-4-((2-(trifluoromethyl)pyrid-4-yl)oxy)benzyl)oxy)-7a-methyl-7,7a,8,9,10,11-hexahydro-4H,6H-pyridino[1,2-c] pyrimidine[1,6-a] pyrimidine-4-one] | 8.80
CC12CCCN1c1cc(OCc3cc(F)c(Oc4ccnc(Cl)c4)c(F)c3)nc(=O)n1CC2 (stereo not drawn) [Example 36] | 7.76
O=c1nc(OCc2cc(F)c(Oc3ccnc(Cl)c3)c(F)c2)c(F)c2n1CC[C@]13CO[C@H](CN21)C3 [Example 61, (7aS, 10S)-2-((4-((2-chloropyrid-4-yl)oxy)-3,5-difluorobenzyl)oxy)-1-fluoro-6,7,10,11-tetrahydro-4H,8H-7a, 10-methylamino-pyrimidine[6′,1′:2,3] pyrimidine[6,1-c] [1,4]oxazin-4-one] | 8.15
CCC12CCCN1c1cc(OCc3cc(F)c(Oc4ccnc(C(F)(F)F)c4)c(F)c3)nc(=O)n1CC2 (stereo not drawn) [Example 38, 2-((3,5-difluoro-4-((2-(trifluoromethyl)pyrid-4-yl)oxy)benzyl)oxy)-7a-ethyl-6,7,7a,8,9,10-hexahydro-4H-pyrimido[1,6-a] pyrrolo[1,2-c] pyrimidine-4-one] | 8.09
CCC12CCCN1c1cc(OCCc3ccc(Oc4ccc(Cl)c(C(F)(F)F)c4)cc3)nc(=O)n1CC2 (stereo not drawn) [Example 41, 2-(4-(4-chloro-3-(trifluoromethyl)phenoxy)phenyl-ethoxy)-7a-ethyl-6,7,7a, 8,9,10-hexahydro-4H-pyrimidine [1,6-a]pyrrole[1,2-c]pyrimidine-4-one] | 6.63
O=c1nc(OCCc2ccc(Oc3ccc(Cl)c(C(F)(F)F)c3)cc2)cc2n1CCC13CC(CN21)C3 [Example 22, 2-(4-(4-chloro-3-(trifluoromethyl)phenoxy)phenyl-ethoxy)-6,7,9,10-tetrahydro-4H,8H-7a,9-methano-pyrimido [1,6-a]pyrrolo[1,2-c] pyrimidine-4-one] | 6.92
O=c1nc(OCc2ccc(Oc3ccnc(C(F)(F)F)c3)c(F)c2)cc2n1CC[C@@H]1CCCCN21 [Example 47, (S)-2-((3-fluoro-4-((2-(trifluoromethyl)pyrid-4-yl)oxy)benzyl)oxy)-7,7a, 8,9,10,11-hexahydro-4H,6H-pyridino[1,2-c] pyrimidine[1,6-a] pyrimidine-4-one] | 7.84
Cc1cc(Oc2c(F)cc(COc3cc4n(c(=O)n3)CCC3(C)CCCCN43)cc2F)ccn1 (stereo not drawn) [Example 50, 2-((3,5-difluoro-4-((2-methylpyrid-4-yl)oxy)benzyl)oxy)-7a-methyl-7,7a,8,9,10,11-hexahydro-4H,6H-pyridino [1,2-c]pyrimidine [1,6-a]pyrimidine-4-one] | 7.89
O=c1nc(OCc2cc(F)c(Oc3ccnc(OC(F)(F)F)c3)c(F)c2)cc2n1CCC1COCCN21 (stereo not drawn) [Example 54, 2-((3,5-difluoro-4-((2-(trifluoro-methoxy)pyrid-4-yl)oxy)benzyl)oxy)-6,7,7a,8,10,11-hexahydro-4H-pyrimidinyl [6′,1′:2,3] pyrimidine [6,1-c][1,4] oxazin-4-one] | 8.28

Source: patent publication US20240246995A1, “PYRIMIDINONE DERIVATIVE AND PREPARATION METHOD THEREFOR, PHARMACEUTICAL COMPOSITION, AND USE” (SHANGHAI SIMR BIOTECHNOLOGY CO., LTD., priority 2021, published 2024)
